Measurements published in US7718677B2, “Methods and compositions for reduction of side effects of therapeutic treatments” (priority 2007, dated 2010).
Values joined by “and” are separate entries in the source; they are usually repeats but may differ in a detail not shown here. Identical values can stand only once. Like-named read-outs stand apart in the source and are kept apart here. Marks after values point to notes of the source that are not given here.

What was measured:
[1] = test system: Squirrel (Saimiri sciureus) monkeys with nigrostriatal damage; experiment: Levodopa-induced dyskinesias in MPTP-lesioned monkeys, nicotine in drinking solution before levodopa (Example 1); assay type: in vivo; settings: for dyskinetic ratings 3 hours after the afternoon levodopa treatment: scale 0-4, mean ± SE
Description: Animals: Squirrel (Saimiri sciureus) monkeys (n=7) were purchased from World Wide Primates (Miami, Fla.). The animals weighed between 0.6-0.9 kg and were in mid to late adulthood as determined from their general appearance (dentition, fur, other). Female monkeys were used since older animals were available that may better model Parkinson's disease. The animals were placed in quarantine upon arrival, and maintained in a temperature-controlled room (27±3° C.) with a relative humidity>30%, under a 13/11-hour light/dark cycle. Monkey food chow and fruits/vegetables were provided once daily, with water provided ad libitum. The monkeys were housed in separate cages to allow for clear behavioral assessments. The animals were released from quarantine after 1 month and treatments initiated. All procedures conformed to the National Institutes of Health Guide for the Care and Use of Laboratory Animals and were approved by the Institutional Animal Care and Use Committee at the Parkinson's Institute.
(§1) 1-Methyl-4-phenyl-1,2,3,6-tetrahydropyridine (MPTP) administration: Prior to lesioning, the animals were allowed to acclimate to the colony and rated for parkinsonism as described (Langston et al. Ann Neurol. 2000; 47:S79-89). All values were within the normal range. The monkeys were then injected subcutaneously with 2.0 mg/kg MPTP (Sigma, St-Louis, Mo.) dissolved in saline. The animals were rated for parkinsonism 3-4 weeks after MPTP administration. The disability scores ranged from 0 (normal) to 28 for a severely parkinsonian animal. Animals were assessed for 1) spatial hypokinesia (reduction in use of the available cage space), 2) body bradykinesia (increased slowness in body movement), 3) left and 4) right manual dexterity, 5) balance, 6) freezing and 7) action tremor. If they were not parkinsonian, MPTP injection (1.0-2.0 mg/kg) was repeated from 2-5 times for total doses of 3.5 to 13.5 mg/kg. Despite multiple MPTP dosing, two of the animals were not stably parkinsonian.
Nicotine treatment: All monkeys (n=7) were then given a drinking solution for 3 weeks consisting of commercially available orange Gatorade® to mask nicotine's bitter taste (FIG. 1). The control group (n=4) was continued on Gatorade® only, while nicotine (free base) was added to the Gatorade of the treated group (n=3). Nicotine dosing was started at 50 μg/ml for 1 week, 150 μg/ml for 1 week, with the concentration increased by […] over the next few weeks, up to 650 μg/ml (FIG. 1).
Levodopa administration: Monkeys were administered levodopa/carbidopa (5 mg/kg and 1.25 mg/kg, respectively), prepared by crushing a tablet of Sinemet® CR 100/25 (DuPont Pharma) and dissolving it in water. This dose of levodopa is within the range of that prescribed to Parkinson's disease patients. The monkeys were gavaged twice daily at 3.5-hour intervals for 8 weeks at a time using a 5-day-on/2-day-off schedule (Hsu et al., J Pharmacol Exp Ther. 2004; 311:770-777). During levodopa treatment, the monkeys were given fruits in the morning and food pellets 3.5 hours after the afternoon levodopa dose to optimize gastrointestinal absorption.
Dyskinesias were rated from videotapes, as described (Hsu et al., J Pharmacol Exp Ther. 2004; 311:770-777). This included a one hour baseline period (no drugs) from ˜8:00-9:00 AM, followed by two 3.5-hour treatment periods with levodopa starting at ˜9:00 AM and ˜12:30 PM. Dyskinesias were rated for 2-minute periods at 30-minute intervals by two independent raters blinded to treatment. They were rated on a scale of 0 (no dyskinesias) to 4; a score of 1 was indicative of subtle dyskinesias that were not sustained; 2, mild dyskinesias that were sustained; 3, moderate dyskinesias that impaired the ability to remain stationary; 4, severe dyskinesias that were generalized and incapacitating.
Data analyses: The levodopa treatment protocol used in the present study involved a 5-day-on/2-day-off schedule.

[2] = test system: MPTP-lesioned squirrel monkeys; experiment: Parkinsonism rating on or off levodopa in MPTP-lesioned monkeys; assay type: in vivo, Saimiri sciureus; settings: for Parkinson Ratings Expt 1 / Parkinson Ratings Expt 2 (crossover): individual animals, scale 0-28; for Parkinson Ratings Mean ± SE (n): n=5
Description: as §1
Data analyses: The levodopa treatment protocol used in the present study involved a 5-day-on/2-day-off schedule. Parkinsonian ratings were done on Monday and Friday of each week, with the score averaged over the two days. Dyskinesias ratings were determined by averaging the scores on Wednesday and Thursday of each week. All values are expressed as the mean±SE of the indicated number of animals. Results were compared using paired t-tests or analysis of variance (ANOVA) followed by Bonferroni multiple comparison post hoc test, using Prism® program (GraphPad Software, Inc, San Diego, Calif.). A level of 0.05 was considered significant.
White bars indicate no nicotine treatment and black bars indicate nicotine treatment. Parkinsonism was evaluated immediately before the afternoon L-dopa dose and 1.5 to 2 hours after L-dopa treatment, when a maximal antiparkinsonian effect is anticipated. Two of the seven animals in the study were not parkinsonian, and therefore were not included in this analysis. Error bars are the means±standard error of five animals before and after crossover of nicotine treatment. **p<0.01, as compared with the same group with no L-dopa treatment by a Mann-Withney test.

[3] = nicotine in Gatorade up to 650 μg/ml
Description: Nicotine treatment: All monkeys (n=7) were then given a drinking solution for 3 weeks consisting of commercially available orange Gatorade® to mask nicotine's bitter taste (FIG. 1). The control group (n=4) was continued on Gatorade® only, while nicotine (free base) was added to the Gatorade of the treated group (n=3). Nicotine dosing was started at 50 μg/ml for 1 week, 150 μg/ml for 1 week, with the concentration increased by 150 μg increments/week over the next few weeks, up to 650 μg/ml (FIG. 1).

[4] = test system: corticostriatal slices from nonhuman primates; settings: nicotine treatment
Description: Brain slices at the level of the globus pallidus have generally been used as they incorporate many of the structures present in basal ganglia motor circuits. This includes glutamatergic inputs from the cortex that densely innervate striatal medium spiny GABAergic neurons and are a determinant of neuronal activity in striatal projection neurons. Synaptic plasticity, defined as long-lasting changes in the efficacy of synaptic transmission, has been identified in corticostriatal slices in vitro in the form of long-term potentiation (LTP), long-term depression (LTD) and depotentiation. In slices from unlesioned rats, high-frequency stimulation (HFS) of glutamatergic corticostriatal afferent fibers can induce both LTD and LTP in striatal medium spiny neurons, most likely due to a release of striatal glutamate which triggers dopamine release. Stimulation of both D1 and D2 receptors is required for the induction of LTD, whereas these two receptor subtypes play opposing roles in LTP.

[5] = on levodopa treatment, 1.5-2 hours after dosing

CN1CCCC1c1cccnc1 (centres unmarked) [Nicotine, S-3-(1-methyl-2-pyrrolidinyl)pyridine]
total dyskinesias (area under the curve of the time course) ([1]; all time points vs monkeys not receiving nicotine): significant decrease
decline in levodopa-induced dyskinesias ([1]; animals pretreated with nicotine, levodopa naïve monkeys): ~60%
levodopa-induced dyskinesias over the course of the day (time course) ([1]; nicotine up to 650 μg/ml in drinking solution, vs monkeys not receiving nicotine, entire 8-week period): significantly reduced
peak dyskinesias (maximal dyskinetic score during the morning or afternoon) ([1]; throughout the 8-week levodopa treatment vs control): decreased
dyskinetic ratings 3 hours after the afternoon levodopa treatment ([1]; week 2/3 of levodopa treatment, levodopa/carbidopa 5/1.25 mg/kg twice daily): 0.3 ± 0.3
dyskinetic ratings 3 hours after the afternoon levodopa treatment ([1]; week 4 of levodopa treatment): 0*
dyskinetic ratings 3 hours after the afternoon levodopa treatment ([1]; week 6 of levodopa treatment): 0*
dyskinetic ratings 3 hours after the afternoon levodopa treatment ([1]; week 8 of levodopa treatment): 0.2 ± 0.2
Parkinson Ratings Expt 1 ([2]; no levodopa treatment): 5.2 and 6.6
Parkinson Ratings Expt 2 (crossover) ([2]; no levodopa treatment): 4.1 and 6.4 and 5.9
Parkinson Ratings Mean ± SE (n) ([2]; no levodopa treatment): 5.6 ± 0.5 (5)
Parkinson Ratings Expt 1 [2, 5]: 1.7 and 1.5
Parkinson Ratings Expt 2 (crossover) [2, 5]: 0.8 (2×) and 0.4
Parkinson Ratings Mean ± SE (n) [2, 5]: 1.0 ± 0.2 (5)
effect on parkinsonism ([2]; on or off levodopa treatment): did not affect
effects on body weight or fluid intake [3]: no significant effects
body weight (minipump 2 mg/kg/d nicotine vs vehicle): similar
fluid intake (nicotine in saccharin drinking solution vs vehicle-treated): drank less
body weight (nicotine via drinking water, continued dosing, rats appeared healthy): small difference
long-term depression (LTD) lost as a result of nigrostriatal damage [4]: restores
